# Experimental data taken from US20080311589A1, “METHOD OF HIGH-THROUGHPUT SCREENING OF MOLECULES AND COMPOUNDS FOR THEIR EFFECTS ON BIOLOGICAL AND CHEMICAL PROCESSES” (priority 1999, published 2008).
# Peptide text beside a SMILES is read from it.
# Key:
# [1] = system: 6F mink lung epithelial cells; test: anti-BrdU cytoblot for suppressors of rapamycin; assay type: cell-based
# From the text: FIG. 9. […] A 4 mm scale bar is shown. […] A 4 mm scale bar is shown.
# [2] = system: Mv1Lu mink lung epithelial cells; test: 384 well anti-BrdU cytoblot; assay type: cell-based; conditions: 384-well plate; antiproliferative agents 24 hours, then 10 μM BrdU 16 hours (FIG. 2)
# From the text: FIG. 1. An immunodetection assay for DNA synthesis in high density arrays of mammalian cells. (a) Cartoon depiction of an anti-BrdU cytoblot. The thymine analog 5-bromodeoxyuridine (BrdU) is incorporated into the DNA of cells that are actively replicating their DNA. The cells are in the well, and BrdU is detected with a two step antibody binding procedure. The second antibody is conjugated to the enzyme horseradish peroxidase. In the presence of the chemiluminescent substrate luminol as well as hydrogen peroxide, light of wavelength 428 nm is generated. The light emission can be detected by exposing the plate to film. (b) A cytoblot can detect TGF-β's ability to prevent BrdU incorporation in mink lung epithelial cells. 2000 Mv1Lu mink lung epithelial cells were seeded in each well of a white, opaque 384 well plate. The cells were seeded in the indicated concentrations of TGF-β in 50 μL of DMEM with 1% fetal bovine serum (FBS), 100 units/mL penicillin G sodium, 100 μg/mL streptomycin sulfate and 100 μM each of the amino acids alanine, aspartic acid, glutamine, glycine, asparagine and proline (referred to throughout as 1% mink medium) and allowed to incubate at 37° C. with 5% CO2. After 16 hours, 5.5 μL of 100 μM BrdU in 1% mink medium was added to each well, for a final concentration of 10 μM BrdU. The cells were incubated at 37° C. with 5% CO2 for an additional 16 hours and then an anti-BrdU cytoblot protocol was performed (see protocol). Wells shown are magnified 4×.
# FIG. 2. A cytoblot can detect the ability of numerous antiproliferative agents to inhibit BrdU incorporation. 2000 Mv1Lu mink lung epithelial cells were seeded in each well of a white, opaque 384 well plate. The cells were seeded in 40 μL of 1% mink media and immediately 40 μL of 2× stocks of the reagents shown was added to each well and the cells were allowed to incubate at 37° C. with 5% CO2. After 24 hours, 9 μL of 100 μM BrdU in 1% mink medium was added to each well, for a final concentration of 10 μM BrdU. The cells were incubated at 37° C. with 5% CO2 for an additional 16 hours and then an anti-BrdU cytoblot protocol was performed (see protocol). Wells shown are magnified 2.5×.
# The ability of the cytoblot assay to detect changes in DNA synthesis was tested by measuring the incorporation of 5-bromodeoxyuridine (BrdU, Sigma Corporation, St. Louis, Mo., Cat.# B9285) into DNA in the presence or absence of the anti-mitogen transforming growth factor β (TGF-β). Mink lung cells, which are responsive to TGF-β, were seeded into each well of an opaque, white 384-well plate. The cells were subsequently treated with varying concentrations of TGF-β for 16 hours and then with 10 μM BrdU for 16 hours. […] The following protocols provide experimental detail. […]
# [3] = system: hyperacetylated histone H4; test: 384 well anti-acetylated histone H4 cytoblot; assay type: cell-based, human; conditions: A549 cells; 300 nM trichostatin A, 100 nM trapoxin, 24 hours
# Description: FIG. 5. An immunodetection assay for the accumulation of hyperacetylated histone H4 in high density arrays of mammalian cells. A549 human lung carcinoma cells were seeded at a density of 4000 cells in 40 μL of DMEM+ in each well of an opaque 384 well plate and incubated overnight at 37° C. with 5% CO2. Cells were either untreated, washed once and treated with 0.5% serum, 80 pM TGF-β, 300 nM trichostatin A, 100 nM trapoxin or 250 nM nocodazole and incubated for 24 hours at 37° C. with 5% CO2 in a final volume of 50 μL. A cytoblot was performed (see Protocol) and the presence of the hyperacetylated form of histone H4 was detected using a two step antibody binding procedure using an anti-acetylated H4 antibody and a secondary antibody conjugated to the enzyme horseradish peroxidase. Wells are shown magnified 25×.
# Any post-translational modification that can be recognized by an antibody (or ligand) may be used in a cytoblot screen. […] In addition, antibodies against the phosphorylated form of nucleolin (FIG. 6a) or histone H3 (FIG. 6b) were used to detect the presence of phosphonucleolin or phosphohistone H3 respectively, both of which server as biochemical markers of the mitotic state of cells (Anderson et al. Experimental Cell Research 238: 498-502 1998; Vincent et al. J. Cell. Biol. 132:413-425. 1996)). The following protocol provides experimental detail. […]
smiles,measurement,setting,value
CO[C@H]1C[C@@H]2CC[C@@H](C)[C@@](O)(O2)C(=O)C(=O)N2CCCC[C@H]2C(=O)O[C@H]([C@H](C)C[C@@H]2CC[C@@H](O)[C@H](OC)C2)CC(=O)[C@H](C)/C=C(\C)[C@@H](O)[C@@H](OC)C(=O)[C@H](C)C[C@H](C)/C=C/C=C/C=C/1C [rapamycin],concentration that prevents BrdU incorporation,[1]; 6F mink lung cells,20 nM
"O=C(CCCCC[C@@H]1NC(=O)[C@H]2CCCCN2C(=O)[C@H](Cc2ccccc2)NC(=O)[C@H](Cc2ccccc2)NC1=O)C1CO1 (some centres unmarked) [trapoxin, trapoxin A] (HELM PEPTIDE1{F.F.[O=C([C@H]1CCCCN1[*:1])[*:2]].[O=C(CCCCC[C@H](N[*:1])C(=O)[*:2])C1CO1]}$PEPTIDE1,PEPTIDE1,1:R1-4:R2$$$V2.0)",BrdU incorporation,[2],effectively prevent BrdU incorporation
same,acetylation of histone H4,[3],increase in the acetylation of histone H4
"CC(/C=C/C(=O)NO)=C\[C@@H](C)C(=O)c1ccc(N(C)C)cc1 [trichostatin, trichostatin A]",acetylation of histone H4,[3],increase in the acetylation of histone H4
C=CC[C@@H]1/C=C(\C)C[C@H](C)C[C@H](OC)[C@H]2O[C@@](O)(C(=O)C(=O)N3CCCC[C@H]3C(=O)O[C@H](/C(C)=C/[C@@H]3CC[C@@H](O)[C@H](OC)C3)[C@H](C)[C@@H](O)CC1=O)[C@H](C)C[C@@H]2OC [FK506],excess of FK506 that suppresses the antiproliferative effect of rapamycin,"[1]; rapamycin and FK506 together 16 hours, then with BrdU 16 hours",30-100 fold
